Measurements reported in patent publication US8658684B2, “Pharmaceutical composition and its use in the preparation of a medicament for the treatment of cerebrovascular diseases” (Jiangsu Simcere Pharmaceutical R & D Co., Ltd., priority 2008, dated 2014).

What was measured:
[1] = tested on: focal cerebral ischemia reperfusion model rats; test: Focal cerebral ischemia reperfusion model in rats, intraperitoneal dosing (Example 16); assay type: in vivo, Wistar rats; settings: for Cerebral infarction size (%): 2 h ischemia, 24 h reperfusion, i.p. twice (30 min before ischemia, 12 h after reperfusion), combination 0.5+0.25 mg/kg, control 35.7 ± 7.52; for Cerebral infarction size (%) / neurological deficit score (points) / Cerebral water content (%): Edaravone 1.0 mg/kg, natural borneol 0.5 mg/kg, mean ± SD; for neurological deficit score (points): Longa 5-point scoring 24 h after reperfusion, control 3.1 ± 1.05; for neurological deficit score (points) / Cerebral water content (%): combination 0.5+0.25 mg/kg i.p. twice; for Cerebral water content (%): dry and wet method after ischemia/reperfusion, sham 78.41, control 82.19; for cerebral edema / cerebral water content compared with control group: single drugs P<0.05, combination P<0.01; for effect on symptoms of neurological deficits: versus control group, doses as Table 1
Experimental: 1.1 Animals: healthy male Wistar rats weighing 280-320 g.
1.2 Drugs and Reagents: Edaravone for injection (2 mg/mL) of Example 1, natural borneol injection (2 mg/mL) of Example 3 and Edaravone+natural borneol injection of Example 5.
Main steps are described as follows. Rats were anesthetized with 10% chloral hydrate (350 mg/kg, i.p.). Right external carotid was separated, ligated and severed. A nylon thread with rounded tip was inserted slowly for about 18 mm in depth into the residual end of right external carotid and through common carotid and internal carotid to induce ischemia by blocking the origin of middle cerebral artery. After ischemia for 2 h, the nylon thread was removed for reperfusion for 24 h. Animals in the sham group were treated identically to those in the model group, except that a nylon thread was just used to separate the artery. Manifestation of Homer's symptom and opposite lateral body dyskinesia after animal revival means a successful modelling.
Experimental animals were randomly divided into five groups, including sham group, control group and drug groups. Animals in drug groups were intraperitoneally injected twice, 30 min before ischemia and 12 h after reperfusion. Animals in sham group and control group were each injected with equal volume of normal saline instead.
Neurological deficit scoring: Behavioral evaluation was performed 24 h after reperfusion according to Longa 5-point scoring system.
Determination of cerebral infarction size: Animals were decapitated to get the brain after the last neurological deficit scoring. Rhinencephalon, lower brain stem and cerebella were removed, and the remaining brains were immediately weighted to obtain wet weights. The brains were sectioned coronally into five slices with substantially identical thickness on ice, then incubated in 2,3,5-triphenyl tetrazolium chloride for 30 min at 37° C. Normal brain tissues appeared rose, while infarction areas appeared white. Next, brain slices were fixed in 10% formaldehyde, and white tissues were carefully removed and weighed. Infarction size was determined by the percentage of infracted tissue weight in the total cerebral weight.
Determination of cerebral water content: Cerebral water contents were determined by dry and wet method. Animals were sacrificed to get the whole brain. Rhinencephalon, lower brain stem and cerebella were removed and the wet weight of the remaining brains was determined immediately. Dry weight was obtained after baking in a oven for about 18 h at 120° C. Cerebral water content was calculated according to the following equation: Cerebral water content (%)=(cerebral wet weight−cerebral dry weight)/cerebral wetweight×100.

New Zealand rabbits = test: Repeated intravenous toxicity in rabbits: hematuria, gross necropsy, histopathology (Example 19); assay type: in vivo; settings: for incidence of hematuria: marginal ear vein once daily, 6 rabbits
Experimental: 1.1 Animals: 36 New Zealand rabbits, general grade, with body weight of 2.0-3.0 kg, 18 ♂ and 18 ♀(female and male) respectively.
1.2 Drugs and Reagents: drugs obtained from Examples 12, 13, 14 and 15; 1,2-propylene glycol, 0.9% sodium chloride injection.
Edaravone 80 mg/kg (propylene glycol content: 40%)
Edaravone 20 mg/kg (propylene glycol content: 10%)
Combined Edaravone 120 mg/kg (propylene glycol content: 50%)
Combined Edaravone 30 mg/kg (propylene glycol content: 10%)
Combined Edaravone in this Example refers to Edaravone+natural borneol (weight ratio=2:1).
In the above dosage groups, the dosage per day per rabbit was calculated according to actual weight of each rabbit. The test drugs were administrated in equal volume according to body weight of respective rabbits.
36 rabbits were numbered and randomly divided into six groups according to the body weight, including 4 dosage groups, “Edaravone+natural borneol (weight ratio=2:1)” 120 mg/kg, 30 mg/kg; “Edaravone” 80 mg/kg, 20 mg/kg; as well as vehicle group (40% propylene glycol solution) and solvent group (0.9% sodium chloride injection). There were 6 rabbits in each group, including 3 males and 3 females each. Rabbits were habituated and observed for 3 days before the test. During the test, rabbits were dosed once at the same time in each morning via marginal ear vein injection. Rabbits in high dosage groups were continuously dosed for 13 days, while in low dosage groups, solvent group and vehicle group for 20 days. The dosage were regulated in accordance with body weight variation. Animal responses, stimulations at injection sites and histopathological examination in kidneys and injection site were used to comprehensively evaluate the toxicity of either combined Edaravone or Edaravone on the rabbits.

[2] = tested on: cerebral ischemia/reperfusion model rats; test: Focal cerebral ischemia/reperfusion model, Edaravone versus combinations 2:1, 4:1, 9:1 (Example 18); assay type: in vivo, Wistar rats
Experimental: 1.1 Animals: Healthy male Wistar rats weighing 280-320 g.
1.2 Drugs and Reagents: Edaravone for injection (2 mg/mL) of Example 1, and Edaravone+natural borneol for injection of Examples 5, 7 and 11.
Experimental methods and evaluation methods are the same as Example 13.

[3] = tested on: MCAO cerebral ischemia/reperfusion model rats; test: Middle cerebral artery occlusion (MCAO) cerebral ischemia/reperfusion model, internal carotid thread method (Example 17); assay type: in vivo, Wistar rats; settings: Edaravone+natural borneol total 0.75 mg/kg, Nimodipine 0.4 mg/kg single dosage, mean ± SD, n=8
Experimental: 1.2 Drugs and Reagents: Edaravone+natural borneol for injection of Examples 5, 8 and 9.
Middle cerebral artery occlusion (MCAO), a cerebral ischemia/reperfusion model, was prepared using the internal carotid thread method. Animals were anesthetized with 10% chloral hydrate (3.5 mL/kg), and then fixed on the operation table in prone position. The skin was disinfected and the neck was incised from the midline. Right common carotid, external carotid and internal carotid were separated, and vagus nerve was separated carefully. The external carotid was ligated and severed. Moved forward along the internal carotid, and then pterygopalatine artery was ligated. The proximal part of common carotid was clamped and a cut was made at the distal end of the external carotid ligature. A nylon thread with the outer diameter of 0.285 mm was inserted into the cut, through the branch of common carotid and then into internal carotid slowly until a slight resistance was met (about 20 mm distance from the divergence point). […] Cerebral blood flow was monitored by using laser Doppler cerebral flowmetry. After ischemia in the right brain for 2.0 h, the nylon thread was withdrawn slowly and then blood supply was recovered for reperfusion. The scalp was sutured and disinfected. In the sham group, only the blood vessels were separated without the insertion of a nylon thread. During the operation, rat heating plate and desk lamp with 60 W were used to keep the body temperature of rats at 37.0±0.5° C. […]
Neurological deficit scoring: neurological deficit symptoms were evaluated according to modified Bederson scoring system of 5-point. Neurological deficit symptoms after cerebral trauma in rats were evaluated by using single-blinded method. That is, the experiment designer labeled the animals in groups, while the experiment performer who scored neurological deficit symptoms were blinded for animals grouping. […]

[4] = Edaravone 80 and 20 mg/kg groups, combined Edaravone 120 and 30 mg/kg groups

SMILES | Cerebral infarction size (%) [1] | neurological deficit score (points) [1] | Cerebral water content (%) [1] | cerebral edema / cerebral water content compared with control group [1] | effect on symptoms of neurological deficits [1] | gross necropsy: rabbits with a swollen kidney (New Zealand rabbits; 20 mg/kg i.v. daily, 20 days) | incidence of hematuria (New Zealand rabbits; 20 mg/kg, 20 days, propylene glycol 10%) | gross necropsy: liver finding (New Zealand rabbits; 80 mg/kg i.v. daily, 13 days) | gross necropsy: rabbits with khaki and swollen kidney having uneven surface (New Zealand rabbits; 80 mg/kg i.v. daily, 13 days) | incidence of hematuria (New Zealand rabbits; 80 mg/kg, 13 days, propylene glycol 40%) | histopathological examination: injection sites (New Zealand rabbits; [4]) | histopathological examination: kidney (New Zealand rabbits; [4]) | neurological deficit symptoms score ([2]; Edaravone 3 mg/kg, combination dose not given, mean ± SD, n=8, model 2.7 ± 0.5) | cerebral infarction area ([2]; Edaravone 3 mg/kg, combination dose not given, mean ± SD, n=8, model 25.4 ± 14.8) | brain lesion ([2]; Edaravone 3 mg/kg, combination dose not given, mean ± SD, n=8, model 32.2 ± 15.1) | cerebral infarction area compared with model group ([2]; F4,35=4.62, P=0.03, 4:1 and 9:1 P=0.081) | severity of brain lesion compared with model group ([2]; F4,35=5.78, P=0.04, 4:1 and 9:1 P=0.159) | neurological deficit symptoms score ([3]; modified Bederson 5-point score, four administrations (0, 2, 4, 24 h after ischemia), model 2.6 ± 0.52) | brain lesion ([3]; percentage of brain lesion by formazan absorbance at 485 nm, model 33.2 ± 14.8) | cerebral infarction area ([3]; percentage of infarction area by TTC image analysis, model 27.4 ± 13.4)
CC1=NN(c2ccccc2)C(=O)C1 [Edaravone, 3-methyl-1-phenyl-2-pyrazolin-5-one] | 18.0 ± 5.29 % | 2.5 ± 1.02 points | 81.65 ± 1.24 % | significant effect | Neither Edaravone alone nor natural borneol alone had significant effect | 3 of 6 | 100% | one of the rabbits suffered hepatonecrosis and had a khaki and hard liver | 3 of 6 | 100% | stimulatory changes such as vascular occlusion to varied extents | progressive renal lesion such as renal tubular lesion, inflammatory infiltration of mesenchyme, and glomerular lesion | 0.94 ± 0.46 | 9.7 ± 4.6 | 11.6 ± 9.7 | significantly reduced | significantly reduced | – | – | –
CC1(C)C2CCC1(C)C(O)C2 (stereo not shown) [Natural borneol, dextro-camphol] | 19.8 ± 6.37 % | 2.0 ± 0.98 points | 81.25 ± 0.97 % | significant effect | Neither Edaravone alone nor natural borneol alone had significant effect | – | – | – | – | – | – | – | – | – | – | – | – | – | – | –
COCCOC(=O)C1=C(C)NC(C)=C(C(=O)OC(C)C)C1c1cccc([N+](=O)[O-])c1 (stereo not shown) [Nimodipine] | – | – | – | – | – | – | – | – | – | – | – | – | – | – | – | – | – | 1.1 ± 0.58 | 11.6 ± 5.0 | 8.8 ± 4.0
